PubChem BioAssay (NCI)
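Following 48 hours of exposure in 96-well plates, responses at five concentrations were used to interpolate endpoints linearly. The concentration for full growth arrest is given as TGI.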

Tests used:
Assay in all cases: DTP human tumour cell line panel, 48 h
A498 renal = test system: A498 renal
CCRF-CEM leukemia = test system: CCRF-CEM leukemia
NCI/ADR-RES ovarian = test system: NCI/ADR-RES ovarian
SN12C renal = test system: SN12C renal
HCC-2998 colon = test system: HCC-2998 colon
HCT-15 colon = test system: HCT-15 colon
SK-OV-3 ovarian = test system: SK-OV-3 ovarian
MDA-N = test system: MDA-N
SK-MEL-2 melanoma = test system: SK-MEL-2 melanoma
LOX IMVI melanoma = test system: LOX IMVI melanoma
HL-60(TB) leukemia = test system: HL-60(TB) leukemia
K-562 leukemia = test system: K-562 leukemia
U251 CNS = test system: U251 CNS
M14 melanoma = test system: M14 melanoma
SF-268 CNS = test system: SF-268 CNS
OVCAR-5 ovarian = test system: OVCAR-5 ovarian
EKVX NSCLC = test system: EKVX NSCLC
TK-10 renal = test system: TK-10 renal
COLO 205 colon = test system: COLO 205 colon
DU-145 prostate = test system: DU-145 prostate

Compound	TGI (A498 renal)	TGI (CCRF-CEM leukemia)	TGI (NCI/ADR-RES ovarian)	TGI (SN12C renal)	TGI (HCC-2998 colon)	TGI (HCT-15 colon)	TGI (SK-OV-3 ovarian)	TGI (MDA-N)	TGI (SK-MEL-2 melanoma)	TGI (LOX IMVI melanoma)	TGI (HL-60(TB) leukemia)	TGI (K-562 leukemia)	TGI (U251 CNS)	TGI (M14 melanoma)	TGI (SF-268 CNS)	TGI (OVCAR-5 ovarian)	TGI (EKVX NSCLC)	TGI (TK-10 renal)	TGI (COLO 205 colon)	TGI (DU-145 prostate)
Oc1cc(O)c2ccc(-c3ccc(O)c(O)c3)[o+]c2c1	> 100 µM	> 100 µM	> 100 µM	> 100 µM	> 100 µM	> 100 µM	> 100 µM	> 100 µM	> 100 µM	> 100 µM	> 100 µM	> 100 µM	> 100 µM	> 100 µM	> 100 µM	> 100 µM	> 100 µM	> 100 µM		
O=C(CC(CC(=O)Oc1c(Br)cc(Br)cc1C(=O)O)C(=O)Oc1c(Br)cc(Br)cc1C(=O)O)Oc1c(Br)cc(Br)cc1C(=O)O	> 100 µM	> 100 µM		> 100 µM	> 100 µM	> 100 µM	> 100 µM		> 100 µM	> 100 µM	96.6 µM	> 100 µM	> 100 µM	> 100 µM	> 100 µM	> 100 µM	> 100 µM	> 100 µM	> 100 µM	
C=C1CC2CCCC12C=O (configuration not stated)		> 10 µM	> 10 µM	> 10 µM	> 10 µM	> 10 µM	> 10 µM	> 10 µM		> 10 µM	> 10 µM	> 10 µM	> 10 µM	> 10 µM	> 10 µM			> 10 µM	> 10 µM	> 10 µM
COc1ccc(NC(=S)N/N=C\c2ccc(NC(C)=O)cc2)cc1		> 100 µM		> 100 µM	> 100 µM		> 100 µM	> 100 µM	> 100 µM	> 100 µM	> 100 µM		> 100 µM	> 100 µM		> 100 µM	> 100 µM	> 100 µM	> 100 µM	> 100 µM
S=C(NNC1=NCCCCN1)Nc1ccc(Cl)cc1	> 100 µM	> 100 µM	> 100 µM		> 100 µM	> 100 µM	93.1 µM	> 100 µM	> 100 µM	> 100 µM	> 100 µM	> 100 µM	> 100 µM	22.1 µM	> 100 µM	> 100 µM	> 100 µM	> 100 µM	34.5 µM	
COc1cc2c(cc1C[C@H]1[C@@H]3C[C@H]4c5c(c6ccccc6n5C)C[C@@H]([C@@H]3CO[C@]1(C)OC(C)=O)N4C)c1c(n2C)C2C[C@H]3C(C(C)=O)=COC[C@H]3[C@H](C1)N2C	> 25 µM	5.84 µM	8.32 µM	> 25 µM	0.246 µM	6.25 µM	> 25 µM		15.2 µM	> 25 µM		> 25 µM	> 25 µM	6.24 µM	24 µM	11.6 µM	2.24 µM	16.1 µM	6.19 µM	> 25 µM
COc1cc2nc(Nc3cccc(Br)c3)nc(Nc3cccc(Br)c3)c2cc1OC		46.5 µM	37.5 µM	31.4 µM	44.6 µM	33.3 µM	34.4 µM	32.8 µM	36.1 µM	30.4 µM		62.2 µM	35.7 µM	32.3 µM	29.9 µM	70.9 µM	39.8 µM	39.3 µM	27.7 µM	34.1 µM
Nc1ccc2nc3c(nc2c1)C(=O)c1ccccc1-3		> 100 µM	> 100 µM	> 100 µM	> 100 µM	> 100 µM	> 100 µM	> 100 µM			> 100 µM	> 100 µM	> 100 µM	> 100 µM	> 100 µM	> 100 µM	> 100 µM	> 100 µM	> 100 µM	> 100 µM
CC(=O)OC(CN1CCN(c2ccccn2)CC1)Cn1sc2nc(C)cc(C)c2c1=O (configuration not stated)	32.2 µM	> 100 µM	67.1 µM	37.2 µM	34.4 µM	42.2 µM	35.9 µM		32.2 µM	47.4 µM	55.5 µM	94 µM	32.1 µM	31.4 µM	32.9 µM	31.5 µM	32.4 µM	31.3 µM	31.2 µM	33.9 µM
O=P1(Oc2ccccc2)N=P(c2ccccc2)(c2ccccc2)C=C(c2ccc(Cl)cc2)N1 (configuration not stated)		26.6 µM	27.9 µM	32.4 µM		21.9 µM	26 µM	22.8 µM	27.6 µM		20.5 µM	22.2 µM	18.8 µM	21.1 µM	26.2 µM	28.2 µM	21.6 µM	26.8 µM	17.1 µM	26.9 µM
FC(F)(F)c1ccc(Cc2nc3cc4ccccc4cc3[nH]2)cc1	> 100 µM	> 100 µM	> 100 µM	> 100 µM	> 100 µM	> 100 µM			> 100 µM	> 100 µM	> 100 µM	> 100 µM	> 100 µM	> 100 µM	> 100 µM	> 100 µM	> 100 µM	> 100 µM	> 100 µM	> 100 µM
Oc1ccc([Te]CCNCC[Te]c2ccc(O)cc2)cc1	46.6 µM	> 100 µM		> 100 µM	38.2 µM		98.9 µM			43 µM	38.5 µM	> 100 µM	25.6 µM	55.3 µM	> 100 µM	37.7 µM	19 µM	90.7 µM	22.4 µM	
Cc1ccc2c(=O)cc(Cc3cccs3)[nH]c2n1		> 100 µM	> 100 µM	> 100 µM		> 100 µM	> 100 µM		> 100 µM	> 100 µM	> 100 µM	> 100 µM	> 100 µM	> 100 µM	> 100 µM	> 100 µM	> 100 µM	> 100 µM	> 100 µM	> 100 µM
NC1=NC2=c3ccccc3=C(c3cnccn3)C2(c2cnccn2)c2ccccc21 (configuration not stated)	69.1 µM	> 100 µM		> 100 µM	> 100 µM	> 100 µM	> 100 µM		> 100 µM	> 100 µM	> 100 µM	> 100 µM	> 100 µM	> 100 µM	> 100 µM	> 100 µM	> 100 µM	> 100 µM	> 100 µM	
CC(C)(C)n1c(=O)n2n(c1=O)Cc1cccc3cccc(c13)C2		24.6 µM	37.1 µM	46.3 µM	45.6 µM	39.5 µM	93.3 µM	50.8 µM	38.2 µM	73.5 µM		35.4 µM	33.9 µM	34.1 µM	49.1 µM	35.1 µM	> 100 µM	> 100 µM	72.3 µM	> 100 µM
O=C(NC(=S)Nc1ccc2c(c1)Sc1ccccc1O2)c1ccc([N+](=O)[O-])cc1		> 100 µM	> 100 µM	> 100 µM		> 100 µM	> 100 µM	> 100 µM	> 100 µM	> 100 µM	> 100 µM	> 100 µM	> 100 µM	> 100 µM	> 100 µM	> 100 µM	> 100 µM	> 100 µM	> 100 µM	> 100 µM
COC(=O)[C@H](Cc1ccccc1)NC(=O)/C(=C/C(C)C)NC(=O)[C@H](CCSC)NC=O	> 100 µM	> 100 µM		> 100 µM	> 100 µM	> 100 µM	> 100 µM		> 100 µM	> 100 µM	> 100 µM	> 100 µM	> 100 µM	> 100 µM	> 100 µM		> 100 µM	> 100 µM	> 100 µM	
CCCCCCCCOCC(O)COC(C)C (configuration not stated)	> 100 µM	52.8 µM		73.1 µM	58.3 µM	> 100 µM	> 100 µM			> 100 µM	31.7 µM	96.6 µM	> 100 µM	> 100 µM	> 100 µM	> 100 µM		> 100 µM	> 100 µM	
O=C(C=C1SCCS1)/C=C\c1ccc(Cl)cc1	> 100 µM	> 100 µM		> 100 µM	84.1 µM		> 100 µM		> 100 µM	> 100 µM	> 100 µM	> 100 µM		> 100 µM	> 100 µM		> 100 µM	> 100 µM	> 100 µM	
CC(=O)OC1CC2CCN3C(=O)c4cc5c(cc4[C@H](C1OC(C)=O)C23)OCO5 (some centres not stated)		> 100 µM		> 100 µM	> 100 µM	> 100 µM	> 100 µM			> 100 µM	> 100 µM	> 100 µM	> 100 µM	> 100 µM	> 100 µM		> 100 µM	> 100 µM	> 100 µM	
CC(C)(C)c1cc(-c2cc(C(C)(C)C)[nH]n2)n[nH]1	> 100 µM	> 100 µM		> 100 µM	> 100 µM	> 100 µM	> 100 µM	> 100 µM	> 100 µM	> 100 µM	> 100 µM	> 100 µM	> 100 µM	> 100 µM	> 100 µM	> 100 µM	> 100 µM	> 100 µM	> 100 µM	> 100 µM
COc1ccccc1C1C(Cl)C(=O)N1n1cnc2ccccc2c1=O (configuration not stated)		> 100 µM		> 100 µM	> 100 µM	> 100 µM	> 100 µM		> 100 µM	> 100 µM	> 100 µM	> 100 µM	> 100 µM	> 100 µM	> 100 µM	> 100 µM	> 100 µM	> 100 µM	> 100 µM	
O=C(Cn1cc(-c2ccccc2)nn1)NC1CCCCC1		> 100 µM	> 100 µM	> 100 µM	> 100 µM	> 100 µM			> 100 µM	> 100 µM	> 100 µM	> 100 µM	> 100 µM	> 100 µM	> 100 µM	> 100 µM	> 100 µM	> 100 µM	> 100 µM	> 100 µM
N#Cc1cnc(-n2[nH]c3c(c2=O)CCCC3)[nH]c1=O	> 100 µM	> 100 µM		> 100 µM		> 100 µM	> 100 µM	> 100 µM	> 100 µM		> 100 µM	> 100 µM	> 100 µM	> 100 µM	> 100 µM	> 100 µM	> 100 µM	> 100 µM	> 100 µM	> 100 µM
COc1ccc(N=C2S/C(=N\C(=Nc3ccccc3)SCc3ccccc3)N(c3ccccc3)C2=Nc2ccc(OC)cc2)cc1		> 100 µM		> 100 µM	> 100 µM	> 100 µM		> 100 µM	> 100 µM		> 100 µM	> 100 µM		> 100 µM			> 100 µM	> 100 µM	> 100 µM	
Nc1ccccc1Nc1ccccc1C(=O)[O-].Nc1ccccc1Nc1ccccc1C(=O)[O-].[Zn+2]	> 100 µM	> 100 µM		> 100 µM	> 100 µM	> 100 µM	> 100 µM		43.2 µM			> 100 µM	> 100 µM	> 100 µM	> 100 µM	> 100 µM	> 100 µM	> 100 µM	> 100 µM	
CC(=O)OCC(C)C1=C(OC(C)=O)C(=O)C2(C)C/C=C(/C)CC/C=C(\C)CCC(OC(C)=O)C(C)CCC12 (configuration not stated)		40.9 µM		36.5 µM	31.2 µM	34 µM		33.5 µM	30.6 µM	35 µM	27.5 µM	33.4 µM	31.3 µM	34.2 µM	35 µM	25.4 µM		39 µM	37.8 µM	36.7 µM
